EC50 data for 21 compounds are collected here from US20240228504A1, “SUBSTITUTED TRICYCLIC AMIDES, ANALOGUES THEREOF, AND METHODS USING SAME” (Arbutus Biopharma Corporation, priority 2020, published 2024).

The structures appear in SMILES notation.

This assay has as its system HBV rcDNA in HepDE19 cells. Nature of the assay: HepDE19 assay with bDNA quantitation of HBV rcDNA. Format: cell-based, hepatitis B virus. The following applies: Hepatitis B virus, HepDE19, HepDE19 assay, inhibition of rcDNA formation, bDNA quantitation; read-out: DE-19bDNA EC50.
By EC50 is commonly meant the concentration that produces a half-maximal response. Consider `CN(C(=O)c1cc2ccncc2[nH]1)[C@@H]1COCc2[nH]c(=O)c3cc(F)c(F)cc3c21` [Compound 307, (S)-N-(8,9-Difluoro-6-oxo-1,4,5,6-tetrahydro-2H-pyrano[3,4-c]isoquinolin-1-yl)-N-methyl-1H-pyrrolo[2,3-c]pyridine-2-carboxamide], for which the EC50 was found to be 0.2 µM.

Regarding `CN(C(=O)c1cc2cnccc2[nH]1)[C@@H]1COCc2[nH]c(=O)c3cc(F)c(F)cc3c21` [Compound 308, (S)-N-(8,9-Difluoro-6-oxo-1,4,5,6-tetrahydro-2H-pyrano[3,4-c]isoquinolin-1-yl)-N-methyl-1H-pyrrolo[3,2-c]pyridine-2-carboxamide], the EC50 stood at 0.61 µM.

For `CN(C(=O)c1cc2cnc(Cl)cc2[nH]1)[C@@H]1COCc2[nH]c(=O)c3cc(F)c(F)cc3c21` [Compound 309, (S)-6-chloro-N-(8,9-difluoro-6-oxo-1,4,5,6-tetrahydro-2H-pyrano[3,4-c]isoquinolin-1-yl)-N-methyl-1H-pyrrolo[3,2-c]pyridine-2-carboxamide], the EC50 came out at 0.05 µM. Next, `CN(C(=O)c1cc2cc(F)ncc2[nH]1)[C@@H]1COCc2[nH]c(=O)c3cc(F)c(F)cc3c21` [Compound 310, (S)-N-(8,9-Difluoro-6-oxo-1,4,5,6-tetrahydro-2H-pyrano[3,4-c]isoquinolin-1-yl)-5-fluoro-N-methyl-1H-pyrrolo[2,3-c]pyridine-2-carboxamide]: 0.03 µM; `CN(C(=O)c1ccc2cc(C(F)(F)F)cn2c1)[C@@H]1COCc2[nH]c(=O)c3cc(F)c(F)cc3c21` [Compound 311, (S)-N-(8,9-Difluoro-6-oxo-1,4,5,6-tetrahydro-2H-pyrano[3,4-c]isoquinolin-1-yl)-N-methyl-2-(trifluoromethyl)indolizine-6-carboxamide]: 0.14 µM; `CN(C(=O)c1cc2c(Br)cncc2[nH]1)[C@@H]1COCc2[nH]c(=O)c3cc(F)c(F)cc3c21` [Compound 312, (S)-4-Bromo-N-(8,9-difluoro-6-oxo-1,4,5,6-tetrahydro-2H-pyrano[3,4-c]isoquinolin-1-yl)-N-methyl-1H-pyrrolo[2,3-c]pyridine-2-carboxamide]: 0.03 µM. Next, `CN(C(=O)c1ccnc(C(F)F)c1)[C@@H]1COCc2[nH]c(=O)c3cc(F)c(F)cc3c21` [Compound 313, (S)-N-(8,9-Difluoro-6-oxo-1,4,5,6-tetrahydro-2H-pyrano[3,4-c]isoquinolin-1-yl)-2-(difluoromethyl)-N-methylisonicotinamide]: 0.17 µM; `CN(C(=O)c1cc2occc2[nH]1)[C@@H]1COCc2[nH]c(=O)c3cc(F)c(F)cc3c21` [Compound 314, (S)-N-(8,9-Difluoro-6-oxo-1,4,5,6-tetrahydro-2H-pyrano[3,4-c]isoquinolin-1-yl)-N-methyl-4H-furo[3,2-b]pyrrole-5-carboxamide]: 0.15 µM; `CN(C(=O)c1cc2cc(F)c(F)cc2[nH]1)[C@@H]1COCc2c1c1cc(F)c(F)cc1c(=O)n2CCO` [Compound 315, (S)-N-(8,9-Difluoro-5-(2-hydroxyethyl)-6-oxo-1,4,5,6-tetrahydro-2H-pyrano[3,4-c]isoquinolin-1-yl)-5,6-difluoro-N-methyl-1H-indole-2-carboxamide]: 0.03 µM.

As for `CN(C(=O)c1cc2cc(F)c(F)cc2[nH]1)[C@@H]1COCc2c1c1cc(F)c(F)cc1c(=O)n2CCN` [Compound 316], the EC50 was determined as 0.39 µM. Next, `CN(C(=O)c1cc2cc(F)c(F)cc2[nH]1)[C@@H]1COCc2nc(OCCO)c3cc(F)c(F)cc3c21` [Compound 317, (S)-N-(8,9-Difluoro-6-(2-hydroxyethoxy)-1,4-dihydro-2H-pyrano[3,4-c]isoquinolin-1-yl)-5,6-difluoro-N-methyl-1H-indole-2-carboxamide]: 0.01 µM; `COC1OC[C@@H](N(C)C(=O)c2cc3cc(F)c(F)cc3[nH]2)c2c1[nH]c(=O)c1cc(F)c(F)cc21` (stereo partly drawn) [Compound 320, N-((1S)-8,9-Difluoro-4-methoxy-6-oxo-1,4,5,6-tetrahydro-2H-pyrano[3,4-c]isoquinolin-1-yl)-5,6-difluoro-N-methyl-1H-indole-2-carboxamide]: 0.03 µM. Next, `CN(C(=O)c1cc2cc(F)c(F)cc2[nH]1)[C@@H]1COC(=O)c2[nH]c(=O)c3cc(F)c(F)cc3c21` [Compound 321, (S)-N-(8,9-Difluoro-4,6-dioxo-1,4,5,6-tetrahydro-2H-pyrano[3,4-c]isoquinolin-1-yl)-5,6-difluoro-N-methyl-1H-indole-2-carboxamide]: 0.01 µM; `CN(C(=O)c1cccc(Oc2cccc(F)c2)c1)[C@@H]1COCc2[nH]c(=O)c3cc(F)c(F)cc3c21` [Compound 322, (S)-N-(8,9-Difluoro-6-oxo-1,4,5,6-tetrahydro-2H-pyrano[3,4-c]isoquinolin-1-yl)-3-(3-fluorophenoxy)-N-methylbenzamide]: 8.1 µM; `COc1ccc2[nH]c(C(=O)N(C)[C@@H]3COCc4[nH]c(=O)c5cc(F)c(F)cc5c43)cc2c1` [Compound 324, (S)-N-(8,9-Difluoro-6-oxo-1,4,5,6-tetrahydro-2H-pyrano[3,4-c]isoquinolin-1-yl)-5-methoxy-N-methyl-1H-indole-2-carboxamide]: 0.07 µM. Next, `CN(C(=O)c1cc2cc(Cl)ccc2[nH]1)[C@@H]1COCc2[nH]c(=O)c3cc(F)c(F)cc3c21` [Compound 325, (S)-5-chloro-N-(8,9-Difluoro-6-oxo-1,4,5,6-tetrahydro-2H-pyrano[3,4-c]isoquinolin-1-yl)-N-methyl-1H-indole-2-carboxamide]: 0.02 µM; `Cc1ccc2[nH]c(C(=O)N(C)[C@@H]3COCc4[nH]c(=O)c5cc(F)c(F)cc5c43)cc2c1` [Compound 326, (S)-N-(8,9-Difluoro-6-oxo-1,4,5,6-tetrahydro-2H-pyrano[3,4-c]isoquinolin-1-yl)-N,5-dimethyl-1H-indole-2-carboxamide]: 2.5 µM. Consider `CN(C(=O)c1cc2cc(OC(F)(F)F)ccc2[nH]1)[C@@H]1COCc2[nH]c(=O)c3cc(F)c(F)cc3c21` [Compound 327, (S)-N-(8,9-Difluoro-6-oxo-1,4,5,6-tetrahydro-2H-pyrano[3,4-c]isoquinolin-1-yl)-N-methyl-5-(trifluoromethoxy)-1H-indole-2-carboxamide], for which the concentration giving a half-maximal response (EC50) worked out at 1.2 µM. Next, `CCc1ccc2[nH]c(C(=O)N(C)[C@@H]3COCc4[nH]c(=O)c5cc(F)c(F)cc5c43)cc2c1` [Compound 328, (S)-N-(8,9-Difluoro-6-oxo-1,4,5,6-tetrahydro-2H-pyrano[3,4-c]isoquinolin-1-yl)-5-ethyl-N-methyl-1H-indole-2-carboxamide]: 3.1 µM; `COc1cccc2[nH]c(C(=O)N(C)[C@@H]3COCc4[nH]c(=O)c5cc(F)c(F)cc5c43)cc12` [Compound 329, (S)-N-(8,9-Difluoro-6-oxo-1,4,5,6-tetrahydro-2H-pyrano[3,4-c]isoquinolin-1-yl)-4-methoxy-N-methyl-1H-indole-2-carboxamide]: 0.26 µM; `Cc1cccc2[nH]c(C(=O)N(C)[C@@H]3COCc4[nH]c(=O)c5cc(F)c(F)cc5c43)cc12` [Compound 330, (S)-N-(8,9-Difluoro-6-oxo-1,4,5,6-tetrahydro-2H-pyrano[3,4-c]isoquinolin-1-yl)-N,4-dimethyl-1H-indole-2-carboxamide]: 0.01 µM.
